# Test system: not given
# Experiment: not given
# Conditions: not given
row,SMILES,melting point
1,"COc1ccc(OCCCCCCN2CCN(c3nccs3)CC2)cc1.Cl [Example 20, 2-{4-[6-(4-methoxyphenoxy)hexyl]piperazin-1-yl}thiazole hydrochloride]",221 to 223 °C
2,"CC(C)c1ccc(OCCCCCN2CCN(c3nccs3)CC2)cc1 [Example 5, 2-{4-[5-(4-isopropylphenoxy)pentyl]piperazin-1-yl}thiazole]",128 to 130 °C
3,"Cl.c1ccc(OCCCCCN2CCN(c3nccs3)CC2)cc1 [Example 19, 2-[4-(5-phenoxypentyl)piperazin-1-yl]thiazole hydrochloride]",145 to 147 °C
4,"CC(C)(C)c1ccc(OCCCCCCN2CCN(c3nccs3)CC2)cc1 [Example 11, 2-{4-[6-(4-tert-butylphenoxy)hexyl]piperazin-1-yl}thiazole]",30 to 32 °C
5,"Fc1ccc(OCCCCCN2CCN(c3nccs3)CC2)cc1 [Example 3, 2-{4-[5-(4-fluorophenoxy)pentyl]piperazin-1-yl}thiazole]",42 to 44 °C

# Further lines, results first:
row,melting point,SMILES
1,21 to 23 °C,"CCc1ccc(OCCCCCCN2CCN(c3nccs3)CC2)cc1 [Example 9, 2-{4-[6-(4-ethylphenoxy)hexyl]piperazin-1-yl}thiazole]"
2,79 to 81 °C,"CCOc1ccc(OCCCCCN2CCN(c3nccs3)CC2)cc1 [Example 2, 2-{4-[5-(4-ethoxyphenoxy)pentyl]piperazin-1-yl}thiazole]"
3,135 to 137 °C,"CC(C)c1ccc(OCCCCCCN2CCN(c3nccs3)CC2)cc1.Cl [Example 23, 2-{4-[6-(4-isopropylphenoxy)hexyl]piperazin-1-yl}thiazole hydrochloride]"
4,83 to 85 °C,"COc1ccc(OCCCCCN2CCN(c3nccs3)CC2)cc1 [Example 1, 2-{4-[5-(4-methoxyphenoxy)pentyl]piperazin-1-yl}thiazole]"
5,125 to 127 °C,"Cc1ccc(OCCCCCN2CCN(c3nccs3)CC2)cc1 [Example 7, 2-{4-[5-(4-methylphenoxy)pentyl]piperazin-1-yl}thiazole]"
6,73 to 75 °C,"Brc1ccc(OCCCCCN2CCN(c3nccs3)CC2)cc1 [Example 17, 2-{4-[5-(4-bromophenoxy)pentyl]piperazin-1-yl}thiazole]"
7,66 to 68 °C,"Brc1ccc(OCCCCCCN2CCN(c3nccs3)CC2)cc1 [Example 14, 2-{4-[6-(4-bromophenoxy)hexyl]piperazin-1-yl}thiazole]"

# Test system: Vero cells
# Experiment: Toxicity of compounds to the Vero host cells (TC50, TC0)
# Assay type: cell-based
# Conditions: Vero cells
SMILES,TC0,TC50
"COc1ccc(OCCCCCCN2CCN(c3nccs3)CC2)cc1.Cl [Example 20, 2-{4-[6-(4-methoxyphenoxy)hexyl]piperazin-1-yl}thiazole hydrochloride]",3.13 µg/mL,63.0 µg/mL
"CCc1ccc(OCCCCCCN2CCN(c3nccs3)CC2)cc1 [Example 9, 2-{4-[6-(4-ethylphenoxy)hexyl]piperazin-1-yl}thiazole]",3.13 µg/mL,6.25 µg/mL
"CC(C)c1ccc(OCCCCCN2CCN(c3nccs3)CC2)cc1 [Example 5, 2-{4-[5-(4-isopropylphenoxy)pentyl]piperazin-1-yl}thiazole]",3.13 µg/mL,6.25 µg/mL
"Cl.c1ccc(OCCCCCN2CCN(c3nccs3)CC2)cc1 [Example 19, 2-[4-(5-phenoxypentyl)piperazin-1-yl]thiazole hydrochloride]",12.5 µg/mL,79.37 µg/mL
"CCOc1ccc(OCCCCCN2CCN(c3nccs3)CC2)cc1 [Example 2, 2-{4-[5-(4-ethoxyphenoxy)pentyl]piperazin-1-yl}thiazole]",12.5 µg/mL,25.0 µg/mL
"CC(C)(C)c1ccc(OCCCCCCN2CCN(c3nccs3)CC2)cc1 [Example 11, 2-{4-[6-(4-tert-butylphenoxy)hexyl]piperazin-1-yl}thiazole]",3.13 µg/mL,6.25 µg/mL
"Fc1ccc(OCCCCCN2CCN(c3nccs3)CC2)cc1 [Example 3, 2-{4-[5-(4-fluorophenoxy)pentyl]piperazin-1-yl}thiazole]",12.5 µg/mL,79.37 µg/mL
"CC(C)c1ccc(OCCCCCCN2CCN(c3nccs3)CC2)cc1.Cl [Example 23, 2-{4-[6-(4-isopropylphenoxy)hexyl]piperazin-1-yl}thiazole hydrochloride]",3.13 µg/mL,19.84 µg/mL
"COc1ccc(OCCCCCN2CCN(c3nccs3)CC2)cc1 [Example 1, 2-{4-[5-(4-methoxyphenoxy)pentyl]piperazin-1-yl}thiazole]",50.0 µg/mL,100.0 µg/mL
"Cc1ccc(OCCCCCN2CCN(c3nccs3)CC2)cc1 [Example 7, 2-{4-[5-(4-methylphenoxy)pentyl]piperazin-1-yl}thiazole]",3.13 µg/mL,19.84 µg/mL
"Brc1ccc(OCCCCCN2CCN(c3nccs3)CC2)cc1 [Example 17, 2-{4-[5-(4-bromophenoxy)pentyl]piperazin-1-yl}thiazole]",0.78 µg/mL,4.96 µg/mL
"Brc1ccc(OCCCCCCN2CCN(c3nccs3)CC2)cc1 [Example 14, 2-{4-[6-(4-bromophenoxy)hexyl]piperazin-1-yl}thiazole]",12.5 µg/mL,31.5 µg/mL

# Test system: enterovirus EV71 (Shenzhen 98)
# Experiment: Inhibition of cytopathic effect (CPE) induced by EV71 in Vero cells
# Assay type: cell-based
# Conditions: CPE in Vero cells, Reed-Muench method
# Procedure: (§1) Anti-picornaviral activity of the compounds of the present invention in in vitro model Test item: activity screening of compounds against enteroviruses EV71 and Cox A16 Test principle: using Vero cells as virus host, the cytopathic effect of Vero cells induced by the inhibition of compounds against enteroviruses EV71 and Cox A16 was measured.
# (§2) 1. Virus strains: enteroviruses EV71 (Shenzhen 98) and Cox A16, passaging in the laboratory.
# (§3) Test Method: Vero cells were incubated in a 96-well culture plate. After 24 hours, they were infected with EV71 and Cox A16 by adsorption for 2 hours. After discarding the virus solution, maintenance solutions containing different concentrations of samples and positive controls were added, and, at the same time, cell control wells and virus control wells were set. […] The half inhibitory concentrations (IC50) of the samples against EV71 and Cox A16 were respectively calculated according to the Reed-Muench method.
row,SMILES,IC50
1,"COc1ccc(OCCCCCCN2CCN(c3nccs3)CC2)cc1.Cl [Example 20, 2-{4-[6-(4-methoxyphenoxy)hexyl]piperazin-1-yl}thiazole hydrochloride]",> 3.13 µg/mL
2,"CC(C)c1ccc(OCCCCCN2CCN(c3nccs3)CC2)cc1 [Example 5, 2-{4-[5-(4-isopropylphenoxy)pentyl]piperazin-1-yl}thiazole]",> 3.13 µg/mL
3,"Cl.c1ccc(OCCCCCN2CCN(c3nccs3)CC2)cc1 [Example 19, 2-[4-(5-phenoxypentyl)piperazin-1-yl]thiazole hydrochloride]",> 12.5 µg/mL
4,"CC(C)(C)c1ccc(OCCCCCCN2CCN(c3nccs3)CC2)cc1 [Example 11, 2-{4-[6-(4-tert-butylphenoxy)hexyl]piperazin-1-yl}thiazole]",1.57 µg/mL
5,"Fc1ccc(OCCCCCN2CCN(c3nccs3)CC2)cc1 [Example 3, 2-{4-[5-(4-fluorophenoxy)pentyl]piperazin-1-yl}thiazole]",> 12.5 µg/mL

# The remaining lines, values ahead:
row,IC50,SMILES
1,1.97 µg/mL,"CCc1ccc(OCCCCCCN2CCN(c3nccs3)CC2)cc1 [Example 9, 2-{4-[6-(4-ethylphenoxy)hexyl]piperazin-1-yl}thiazole]"
2,7.87 µg/mL,"CCOc1ccc(OCCCCCN2CCN(c3nccs3)CC2)cc1 [Example 2, 2-{4-[5-(4-ethoxyphenoxy)pentyl]piperazin-1-yl}thiazole]"
3,1.97 µg/mL,"CC(C)c1ccc(OCCCCCCN2CCN(c3nccs3)CC2)cc1.Cl [Example 23, 2-{4-[6-(4-isopropylphenoxy)hexyl]piperazin-1-yl}thiazole hydrochloride]"
4,36.3 µg/mL,"COc1ccc(OCCCCCN2CCN(c3nccs3)CC2)cc1 [Example 1, 2-{4-[5-(4-methoxyphenoxy)pentyl]piperazin-1-yl}thiazole]"
5,> 3.13 µg/mL,"Cc1ccc(OCCCCCN2CCN(c3nccs3)CC2)cc1 [Example 7, 2-{4-[5-(4-methylphenoxy)pentyl]piperazin-1-yl}thiazole]"
6,> 0.78 µg/mL,"Brc1ccc(OCCCCCN2CCN(c3nccs3)CC2)cc1 [Example 17, 2-{4-[5-(4-bromophenoxy)pentyl]piperazin-1-yl}thiazole]"
7,> 12.5 µg/mL,"Brc1ccc(OCCCCCCN2CCN(c3nccs3)CC2)cc1 [Example 14, 2-{4-[6-(4-bromophenoxy)hexyl]piperazin-1-yl}thiazole]"

# Same assay, conditions: SI, EV71, Vero cells
row,SMILES,EV71 SI
1,"CCc1ccc(OCCCCCCN2CCN(c3nccs3)CC2)cc1 [Example 9, 2-{4-[6-(4-ethylphenoxy)hexyl]piperazin-1-yl}thiazole]",3.2
2,"CCOc1ccc(OCCCCCN2CCN(c3nccs3)CC2)cc1 [Example 2, 2-{4-[5-(4-ethoxyphenoxy)pentyl]piperazin-1-yl}thiazole]",3.2
3,"CC(C)(C)c1ccc(OCCCCCCN2CCN(c3nccs3)CC2)cc1 [Example 11, 2-{4-[6-(4-tert-butylphenoxy)hexyl]piperazin-1-yl}thiazole]",4.0
4,"CC(C)c1ccc(OCCCCCCN2CCN(c3nccs3)CC2)cc1.Cl [Example 23, 2-{4-[6-(4-isopropylphenoxy)hexyl]piperazin-1-yl}thiazole hydrochloride]",10.1
5,"COc1ccc(OCCCCCN2CCN(c3nccs3)CC2)cc1 [Example 1, 2-{4-[5-(4-methoxyphenoxy)pentyl]piperazin-1-yl}thiazole]",2.8

# Test system: enterovirus Cox A16
# Experiment: microbe, parasite or virus in culture
# Assay type: cell-based
# Conditions: Enterovirus; CPE in Vero cells, Reed-Muench method; read-out: CoxA16 IC50
# Procedure: as §1, §2, §3
row,SMILES,IC50
1,"COc1ccc(OCCCCCCN2CCN(c3nccs3)CC2)cc1.Cl [Example 20, 2-{4-[6-(4-methoxyphenoxy)hexyl]piperazin-1-yl}thiazole hydrochloride]",> 3.13 µg/mL
2,"CC(C)c1ccc(OCCCCCN2CCN(c3nccs3)CC2)cc1 [Example 5, 2-{4-[5-(4-isopropylphenoxy)pentyl]piperazin-1-yl}thiazole]",1.57 µg/mL
3,"Cl.c1ccc(OCCCCCN2CCN(c3nccs3)CC2)cc1 [Example 19, 2-[4-(5-phenoxypentyl)piperazin-1-yl]thiazole hydrochloride]",12.5 µg/mL
4,"CC(C)(C)c1ccc(OCCCCCCN2CCN(c3nccs3)CC2)cc1 [Example 11, 2-{4-[6-(4-tert-butylphenoxy)hexyl]piperazin-1-yl}thiazole]",3.13 µg/mL
5,"Fc1ccc(OCCCCCN2CCN(c3nccs3)CC2)cc1 [Example 3, 2-{4-[5-(4-fluorophenoxy)pentyl]piperazin-1-yl}thiazole]",> 12.5 µg/mL

# Second part, the compound after the results:
row,IC50,SMILES
1,3.13 µg/mL,"CCc1ccc(OCCCCCCN2CCN(c3nccs3)CC2)cc1 [Example 9, 2-{4-[6-(4-ethylphenoxy)hexyl]piperazin-1-yl}thiazole]"
2,1.97 µg/mL,"CCOc1ccc(OCCCCCN2CCN(c3nccs3)CC2)cc1 [Example 2, 2-{4-[5-(4-ethoxyphenoxy)pentyl]piperazin-1-yl}thiazole]"
3,0.57 µg/mL,"CC(C)c1ccc(OCCCCCCN2CCN(c3nccs3)CC2)cc1.Cl [Example 23, 2-{4-[6-(4-isopropylphenoxy)hexyl]piperazin-1-yl}thiazole hydrochloride]"
4,25 µg/mL,"COc1ccc(OCCCCCN2CCN(c3nccs3)CC2)cc1 [Example 1, 2-{4-[5-(4-methoxyphenoxy)pentyl]piperazin-1-yl}thiazole]"
5,> 3.13 µg/mL,"Cc1ccc(OCCCCCN2CCN(c3nccs3)CC2)cc1 [Example 7, 2-{4-[5-(4-methylphenoxy)pentyl]piperazin-1-yl}thiazole]"
6,> 0.78 µg/mL,"Brc1ccc(OCCCCCN2CCN(c3nccs3)CC2)cc1 [Example 17, 2-{4-[5-(4-bromophenoxy)pentyl]piperazin-1-yl}thiazole]"
7,6.25 µg/mL,"Brc1ccc(OCCCCCCN2CCN(c3nccs3)CC2)cc1 [Example 14, 2-{4-[6-(4-bromophenoxy)hexyl]piperazin-1-yl}thiazole]"

# Same assay, conditions: SI, CoxA16, Vero cells
row,SMILES,CoxA16 SI
1,"CCc1ccc(OCCCCCCN2CCN(c3nccs3)CC2)cc1 [Example 9, 2-{4-[6-(4-ethylphenoxy)hexyl]piperazin-1-yl}thiazole]",2.0
2,"CC(C)c1ccc(OCCCCCN2CCN(c3nccs3)CC2)cc1 [Example 5, 2-{4-[5-(4-isopropylphenoxy)pentyl]piperazin-1-yl}thiazole]",4.0
3,"Cl.c1ccc(OCCCCCN2CCN(c3nccs3)CC2)cc1 [Example 19, 2-[4-(5-phenoxypentyl)piperazin-1-yl]thiazole hydrochloride]",6.3
4,"CCOc1ccc(OCCCCCN2CCN(c3nccs3)CC2)cc1 [Example 2, 2-{4-[5-(4-ethoxyphenoxy)pentyl]piperazin-1-yl}thiazole]",12.7
5,"CC(C)(C)c1ccc(OCCCCCCN2CCN(c3nccs3)CC2)cc1 [Example 11, 2-{4-[6-(4-tert-butylphenoxy)hexyl]piperazin-1-yl}thiazole]",2.0
6,"CC(C)c1ccc(OCCCCCCN2CCN(c3nccs3)CC2)cc1.Cl [Example 23, 2-{4-[6-(4-isopropylphenoxy)hexyl]piperazin-1-yl}thiazole hydrochloride]",34.8
7,"COc1ccc(OCCCCCN2CCN(c3nccs3)CC2)cc1 [Example 1, 2-{4-[5-(4-methoxyphenoxy)pentyl]piperazin-1-yl}thiazole]",4.0
8,"Brc1ccc(OCCCCCCN2CCN(c3nccs3)CC2)cc1 [Example 14, 2-{4-[6-(4-bromophenoxy)hexyl]piperazin-1-yl}thiazole]",5.0
